Assay results: US4124726A, “Anti-inflammatory agent of benzoyl derivative” (priority 1976, dated 1978)

How the values were obtained:
[1] = test system: thrombosis; experiment: inhibiting effect on thrombosis (arterio-venous by-pass, silk thread); assay type: in vivo, SD type male rats; details: Rattus norvegicus; 100 mg/kg oral, 5 hours before first circulation, rats; read-out: Thrombosis inh.
Protocol: Inhibiting effect on thrombosis:
The inhibiting effects of the samples of the invention on thrombosis were tested by the following test method.
A 0.5 ml of 50 μ/ml of the heparin physiological saline was added through the polyethylene tube before the first blood circulation. After the blood circulation for 15 minutes, the circulation was stopped in the middle of the tubing at artery side with a pinch cock.
Then, 0.2 ml of the heparin physiological saline was added to remove the blood coagulates on the tubing wall and another new polyethylene tubing filled with the heparin solution and containing a piece of new silk thread was attached between the venous and artery tubing ends.
The blood circulation was reestablished by opening the pinch cock. After 15 minutes, the wet weight of thrombus on the silk thread was similarly measured. In the same manner, the third circulation was performed and wet weight of thrombus measured.
The amount of thrombus was given by the equation A. [formula] Each sample was suspended in an aqueous solution of sodium carboxymethyl cellulose and the oral dose of the suspension (100 mg/kg) was performed at 5 hours before the first blood circulation. The amount of thrombus after the oral dose of the sample was calculated in the same manner as that of control circulations.
The thrombosis inhibition rate was given by the equation B. [formula]

[2] = test system: platelet aggregation; experiment: blood platelet aggregation inhibition, collagen as inducer; assay type: cell-based; details: 10^-4 mole, rabbit PRP
Description: Blood platelet aggregation inhibiting effect
Male rabbits (Japan original white strain 3.3 to 3.6 kg) were anesthetized with Thiopental sodium and blood was sampled from the carotid artery.

[3] = in vivo; details: mouse, po
Protocol: Each sample was dissolved in olive oil or dispersed in 1% Tween 20 aqueous solution.

[4] = test system: painful stretchings induced by acetic acid; experiment: acetic acid induced stretching (analgesic effect); details: 100 mg/kg oral, 0.7% acetic acid i.p., mice
Protocol: Each sample was orally administrated in the dosage of 100 mg/kg before injection of acetic acid.

[5] = test system: carragheenin edema; experiment: acute carragheenin edema inhibition (anti-inflammatory effect); assay type: in vivo, male rats; details: Rattus norvegicus; oral, carragheenin edema, rats; Table 2; read-out: 50% inhibition rate ED50
Protocol: The edema was induced by subcutaneous injection of 1% carraheenin suspension in saline to the hind paws of male rats weighing 150 to 180 g. Each sample was orally given at the dosage of 100 mg/kg just before the inoculation of carragheenin.

Compound	inhibition in vivo at 100 mg/kg [1]	Blood platelet agg. inh. (percentage inhibition of platelet aggregation) [2]	LD50 at 72 h [3]	Analgesic (percentage diminution of times of painful stretchings) [4]	ED50 [5]
CCCc1ccc(C(=O)c2ccc(Cl)cc2)cc1 [compound 63]	6.2%	15.6%			
CC(C)(C)c1ccc(C(=O)c2ccccc2)cc1 [compound 22]	7.9%	9.5%	2000 mg/kg	8.2%	
CCCCCCCCCc1ccc(C(=O)c2ccccc2)cc1 [compound 70]	10%	17.2%			
CCCCCc1ccc(C(=O)c2ccc(C)cc2)cc1 [compound 84]	16%	8.6%	10000 mg/kg	15.3%	
CC(C)c1ccc(C(=O)c2ccccc2)cc1 [compound 21]	5.4%	8.6%	2000 mg/kg	16.1%	
CCCCc1ccc(C(=O)c2ccc(CCCC)cc2)cc1 [compound 43]	86%	3.5%	> 10000 mg/kg		
COc1ccc(C(=O)Cc2ccccc2)cc1 [compound 57]	6.5%	12.5%			
CCCCCCOc1ccc(C(=O)Cc2ccc(Cl)cc2)cc1 [compound 62]	7.8%	12.3%			
Cc1ccc(C(=O)c2ccccc2)c(C)c1 [compound 37]	5.3%	17.4%	1000 mg/kg	9.8%	
CCCc1ccc(C(=O)c2ccccc2C)cc1 [compound 90]	15%	10.8%			
Cc1cc(C)c(C(=O)c2ccccc2F)c(C)c1 [compound 11]		16.5%	500 mg/kg	13.9%	22 mg/kg
CCCc1ccc(C(=O)c2ccccc2)cc1 [compound 20]	4.1%	36.6%	2000 mg/kg	17.3%	
CCCCOc1ccc(C(=O)Cc2ccc(Cl)cc2)cc1 [compound 61]	8.5%	15.8%			
CCCCc1ccc(C(=O)c2ccccc2C)cc1 [compound 40]		11.9%	2000 mg/kg	20.3%	120 mg/kg
CCCCc1ccc(CCCC)c(C(=O)c2ccc(C)cc2)c1 [compound 17]		17.3%	2000 mg/kg	10.3%	180 mg/kg
CCCCc1ccc(C(=O)c2ccc(C)cc2)cc1 [compound 35]	26.5%	11.3%	> 10000 mg/kg		
Cc1ccccc1C(=O)c1c(C)c(C)cc(C)c1C [compound 91]	31%	14.7%			
CCCc1ccc(CCC)c(C(=O)c2ccccc2)c1 [compound 16]		8.6%	1500 mg/kg	12.4%	140 mg/kg
Cc1cc(C)c(C(=O)c2ccccc2)cc1C [compound 32]	25%	12.4%	2000 mg/kg	26.2%	
